{"source": "patent US8609329B2", "about": "“FRET-based assay for screening modulators of receptor cycling” (Albany Medical College, priority 2007, dated 2013)", "test_system": "LDL-R-LDL-C complexes", "assay": "Automated FRET imaging of LDL-C-BODIPY/LDL-C-DiI internalized into MDCK cells (organization of LDL-R/LDL-C complexes)", "assay_type": "cell-based", "experimental": "MDCK cells were bound with LDL-C-BODIPY and LDL-C-DiI for 2 h at 4° C. or incubated for various times (5-8 min and 20-30 min) at 37° C. in the presence or absence of BafilomycinA 1 (BafA1), a specific vacuolar-type ATPase inhibitor. Images were collected using a LSM Zeiss 510META confocal microscope with 63×1.4NA oil lens, 512×512 pixel resolution, no filter, 2× zoom. Then images were processed using an integrated and automated ImageJ plugin, which includes background removal, PFRET algorithm, ROI selection and E % analysis (48). […]\nFirst, images were background-subtracted and processed by PFRET software, which removed donor and acceptor SBT pixel-by-pixel on the basis of matched fluorescence levels between the double-label specimen and single-label reference specimens, using seven images; two single-label donor reference images (donor excitation/donor channel and acceptor channel); two single-label acceptor reference images (donor and acceptor excitation, both in the acceptor channel); three double-label images (donor excitation/donor and acceptor channel, acceptor excitation/acceptor emission. Elangovan et al., 2003; Wallrabe et al., 2003a,b). […] The pixel-by-pixel correction used to generate the processed FRET (PFRET) image was actually based on the average value of narrow fluorescence rangers, for more efficient running of the correction algorithm (Elangovan et al., 2003). […]", "data": [{"compound": "CO/C1=C\\C(C)=C\\[C@@H](C)[C@@H](O)[C@@H](C)C/C(C)=C/C=C/[C@H](OC)[C@@H]([C@@H](C)[C@@H](O)[C@H](C)[C@@]2(O)C[C@@H](O)[C@H](C)[C@@H](C(C)C)O2)OC1=O", "note": "[BafA1, Bafilomycin A1]", "values": [{"measurement": "organization of LDL-R-LDL-C complexes (clustered vs. random)", "setting": "30 min internalization at 37° C., 100 nM BafA1", "value": "clustered organization"}, {"measurement": "dependency of E % on acceptor levels", "setting": "LDL-C internalized at 37° C. for 30 min in the presence of 100 nM BafA1", "value": "clear independency from acceptor"}]}]}
